Laboratory results taken from ChEMBL document CHEMBL6153170 (J Med Chem, 2025).
Calls of active or inactive are those of the source. The rule behind the calls is not given here.

Tests used:
B16-F10 [1] = assay: Antitumor activity against mouse B16-F10 cells implanted in C57BL/6 mouse model assessed as reduction in tumor volume at 20 mg/kg/day, ip administered for 14 days; format: functional, organism-based; conditions: time 14.0 day
[2] = Toxicity in C57 mouse assessed as change in ALT level at 20 mg/kg/day, IG administered for 14 days by heat map analysis; format: organism-based; conditions: in vivo, po, 336 h, time 14 day
[3] = Toxicity in C57 mouse assessed as myelosuppression by measuring hemoglobin level at 20 mg/kg/day, IG administered for 14 days by heat map analysis; format: organism-based; conditions: in vivo, po, 336 h, time 14 day
[4] = Toxicity in C57BL/6 mouse model implanted with mouse B16-F10 cells assessed as morphological changes in liver at 20 mg/kg/day, ip administered for 14 days by H and E staining based analysis; format: organism-based; conditions: in vivo, 336 h, time 14 day
[5] = Toxicity in C57BL/6 mouse model implanted with mouse B16-F10 cells assessed as morphological changes in kidney at 20 mg/kg/day, ip administered for 14 days by H and E staining based analysis; format: organism-based; conditions: in vivo, 336 h, time 14 day
Jurkat [6] = assay: Cytotoxicity against human Jurkat T cells assessed as reduction in cell viability at 0.01 to 1 uM incubated for 48 hrs; format: functional, cell-based; conditions: dose 0.01-1 µM
[7] = Toxicity in C57 mouse assessed as myelosuppression by measuring MCV level at 20 mg/kg/day, IG administered for 14 days by heat map analysis; format: organism-based; conditions: in vivo, po, 336 h, time 14 day
[8] = biological target: T1, Programmed cell death 1 ligand 1 (Mus musculus, UniProt Q9EP73); assay: Binding affinity to C-terminal 6His-tagged recombinant mouse PD-L1 (1 to 238 residues) expressed in HEK293 cells assessed as dissociation constant by SPR analysis
[9] = biological target: T1, Programmed cell death 1 ligand 1; assay: Binding affinity to C-terminal 6His-tagged recombinant mouse PD-L1 (1 to 238 residues) expressed in HEK293 cells assessed as dissociation constant by ITC analysis
Jurkat [10] = assay: cells; conditions: Homo sapiens, 72 h
Jurkat [11] = assay: Cytotoxicity against human Jurkat T cells assessed as reduction in cell viability at 3.3 to 10 uM incubated for 48 hrs; format: functional, cell-based; conditions: dose 3.3-10 µM
Jurkat [12] = assay: Effect on HDAC6 protein level in human Jurkat T cells at 0.1 to 2 uM incubated for 12 hrs by Western blot analysis; format: functional, cell-based; conditions: dose 0.1-2 µM
[13] = MRT (0 to infinity) in male Sprague-Dawley rat at 2 mg/kg, iv measured after 48 hrs by triple quadrupole mass spectrometric analysis; format: ADME, organism-based; conditions: in vivo
[14] = biological target: Histone deacetylase 3 (Homo sapiens) (UniProt O15379); assay: Inhibition of HDAC3 in human Jurkat T cells assessed as increase in acetylated H3 level incubated for 12 hrs by Western blot analysis; format: cell-based
[15] = AUC (0 to infinity) in male Sprague-Dawley rat at 2 mg/kg, iv measured after 48 hrs by triple quadrupole mass spectrometric analysis; format: ADME, organism-based; conditions: in vivo
[16] = Toxicity in C57 mouse assessed as change in AST level at 20 mg/kg/day, IG administered for 14 days by heat map analysis; format: organism-based; conditions: in vivo, po, 336 h, time 14 day
[17] = Toxicity in C57 mouse assessed as myelosuppression by measuring neutrophil level at 20 mg/kg/day, IG administered for 14 days by heat map analysis; format: organism-based; conditions: in vivo, po, 336 h, time 14 day
B16-F10 [18] = assay: Effect on HDAC6 protein level in mouse B16-F10 cells at 0.1 to 2 uM incubated for 12 hrs by Western blot analysis; format: functional, cell-based; conditions: dose 0.1-2 µM
[19] = Oral bioavailability in male Sprague-Dawley rat at 10 mg/kg measured after 48 hrs by triple quadrupole mass spectrometric analysis; format: ADME, organism-based; conditions: in vivo
Jurkat [20] = assay: Effect on acetylated histone H3 protein level in human Jurkat T cells at 0.1 to 2 uM incubated for 12 hrs by Western blot analysis; format: functional, cell-based; conditions: dose 0.1-2 µM
B16-F10 [21] = assay: Downregulation of PD-L1 expression level in mouse B16-F10 cells at 0.1 to 2 uM incubated for 24 hrs by Western blot analysis; format: functional, cell-based; conditions: dose 0.1-2 µM
B16-F10 [22] = assay: Effect on STAT3 expression level in mouse B16-F10 cells at 0.1 to 2 uM incubated for 24 hrs by Western blot analysis; format: functional, cell-based; conditions: dose 0.1-2 µM
[23] = Toxicity in C57BL/6 mouse model implanted with mouse B16-F10 cells assessed as morphological changes in heart at 20 mg/kg/day, ip administered for 14 days by H and E staining based analysis; format: organism-based; conditions: in vivo, 336 h, time 14 day
[24] = MRT (0 to infinity) in male Sprague-Dawley rat at 10 mg/kg, po measured after 48 hrs by triple quadrupole mass spectrometric analysis; format: ADME, organism-based; conditions: in vivo

T1 sequence (Q9EP73 whole entry, the tested form may be a part): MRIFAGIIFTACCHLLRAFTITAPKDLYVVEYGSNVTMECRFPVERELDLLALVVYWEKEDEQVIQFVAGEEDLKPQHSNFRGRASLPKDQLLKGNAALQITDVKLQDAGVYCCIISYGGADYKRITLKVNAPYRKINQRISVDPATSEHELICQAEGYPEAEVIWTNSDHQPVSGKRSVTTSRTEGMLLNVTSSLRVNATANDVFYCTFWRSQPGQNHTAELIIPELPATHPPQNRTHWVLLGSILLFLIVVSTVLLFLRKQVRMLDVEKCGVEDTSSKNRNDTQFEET
Histone deacetylase 3 (Homo sapiens), sequence (O15379 whole entry): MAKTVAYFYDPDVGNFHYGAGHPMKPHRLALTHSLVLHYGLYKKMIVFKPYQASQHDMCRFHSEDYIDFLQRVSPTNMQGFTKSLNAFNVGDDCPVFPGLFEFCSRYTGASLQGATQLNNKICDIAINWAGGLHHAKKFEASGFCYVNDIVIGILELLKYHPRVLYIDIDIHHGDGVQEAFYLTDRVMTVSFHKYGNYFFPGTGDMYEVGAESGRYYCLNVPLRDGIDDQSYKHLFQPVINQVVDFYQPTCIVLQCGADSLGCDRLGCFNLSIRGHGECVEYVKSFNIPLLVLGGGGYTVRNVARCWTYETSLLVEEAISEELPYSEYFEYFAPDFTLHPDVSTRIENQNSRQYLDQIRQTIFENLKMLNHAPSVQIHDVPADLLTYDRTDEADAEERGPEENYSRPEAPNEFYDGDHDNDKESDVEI

Structure (SMILES): COc1nc(-c2cccc(-c3ccccc3)c2C)ccc1CNCCCCCCC(=O)NO
- Activity (B16-F10 [1]): Active
- Activity [2]: Non-toxic
- Activity [3]: Non-toxic
- Activity [4]: Non-toxic
- Activity [5]: Non-toxic
- Activity (Jurkat [6]): inactive
- Activity [7]: Non-toxic
- Kd [8]: 55.3 nM
- Kd [9]: 73 nM
- IC50 (Jurkat [10]): > 10000 nM
- Activity (Jurkat [11]): Active; Mild Cytotoxicity Observed
- Activity (Jurkat [12]): inactive
- MRT inf [13]: 7.12 h
- inhibition [14]: inactive
- AUC(0-inf) [15]: 1290 ng·h/mL
- Activity [16]: Non-toxic
- Activity [17]: Non-toxic
- Activity (B16-F10 [18]): inactive
- bioavailability [19]: 15.3%
- Activity (Jurkat [20]): Active; Negligible Effect Observed
- Activity (B16-F10 [21]): Active
- Activity (B16-F10 [22]): inactive
- Activity [23]: Non-toxic
- MRT inf [24]: 19.3 h
